{"source": "patent US6433175B1", "about": "“Pyrroloindoles, pyridoindoles and azepinoindoles as 5-ht2c agonists” (Vernalis Research Limited, priority 1998, dated 2002)", "origin": "cited, not measured here", "key": {"rats": {"tested_on": "rats", "details": "cited from earlier work"}, "[1]": {"details": "cited from earlier work"}}, "data": [{"smiles": "Clc1cccc(N2CCNCC2)c1", "note": "[mCPP, m-chlorophenylpiperazine]", "values": [{"measurement": "food intake in rats", "setting": "rats", "value": "reduce food intake"}, {"measurement": "appetite and body weight of obese subjects", "setting": "[1]; obese male and female subjects, subchronic treatment for 14 days", "value": "decreased the appetite and body weight"}, {"measurement": "food intake in female volunteers", "setting": "[1]; single dose, female volunteers", "value": "decreased food intake"}]}]}
